This is an account of results in PubChem BioAssay (NCI).

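Assay format: 96-well plates, 48-hour exposure. GI50 is the concentration that inhibits growth by half. Definition used: TGI = concentration required for complete inhibition of growth.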

What all share (assay): NCI anticancer screen, dose series, 48 h
Test [1] concerns NCI-H23 lung.
The subject of test [2] is KM12 colon.
Test [3] concerns SW-620 colon.
The test system of test [4] is MDA-MB-435.
The test system of test [5] is UACC-257 melanoma.
The test system of test [6] is SK-MEL-28 melanoma.
Test [7] concerns M14 melanoma.
Test [8] concerns IGROV1 ovarian.
In test [9] the test system is U251 CNS.
For test [10], the system named is RXF 393 renal.

In the case of `O=C(Nc1cccc(NS(=O)(=O)c2ccc(F)cc2)c1)c1ccc(-c2ccccc2)cc1`, the GI50 in [1] was 2.83 µM; in [2], 3.46 µM; in [3], 4.04 µM; in test [4], 3.26 µM; in test [5] it was 2.76 µM; in test [6], 3.54 µM. The GI50 in [7] is 3.63 µM; in [8] it was 4.38 µM; in [9] it was 3.92 µM; in [10], 3.65 µM. The TGI amounted to 10.5 µM in test [1]; 15.6 µM in test [2]; 35.4 µM in test [3]; 13.7 µM in test [4]; 9.93 µM in [5]; 16.9 µM in [6]. The TGI in [7] is 17.1 µM; in test [8], 64.9 µM; in test [9], 19.2 µM; in test [10] it was 20.7 µM.

For `O=C1c2cccnc2-c2nc(-c3ccccn3)cc3c2c1nc1ccccc13`, the GI50 in test [1] was 0.374 µM; in test [2], 0.426 µM; in test [4] it was 0.728 µM; in test [5], 0.533 µM; in test [6] it was 0.452 µM; in test [7] it was 0.228 µM. Moreover, the GI50 was 0.099 µM in test [8], 0.149 µM in [9] and 0.285 µM in test [10]. Also, the TGI in test [1] came out at 1.78 µM; in test [2], 3.17 µM; in test [4], 2.09 µM; in test [5] it was 1.97 µM; in test [6] it was 1.75 µM; in test [7] it was 1.36 µM. The figures for the TGI in test [8], in [9] and in test [10] were 0.305 µM, 0.306 µM and 5.84 µM, respectively.

For the molecule `O=C(Nc1ncc([N+](=O)[O-])s1)c1cccc([N+](=O)[O-])c1`, the GI50 in [1] is 2.87 µM; in [2] it was 4.61 µM; in [3] it was 6.04 µM; in [4] it was 3.16 µM; in test [5], 3.19 µM; in test [6], 4.64 µM. In addition, the GI50 in [7] is 3.85 µM; in test [8] it was 3.98 µM; in [9], 3.54 µM; in test [10], 2.44 µM. In addition, the TGI in test [1] was more than 78.2 µM; in test [2], 65.6 µM; in test [3] it was more than 100 µM; in test [4] it was 20.9 µM; in test [5], 13.8 µM; in test [6] it was more than 55.5 µM. The TGI in test [7] was 24.1 µM; in test [8] it was more than 56.3 µM; in test [9], more than 100 µM; in [10] it was 6.91 µM.

As to `CCOC(=O)c1[nH]c2cccc3c2c1CC(Br)C3=O` (configuration not stated), the TGI turned out to be 35.9 µM in [1]; 30.5 µM in test [2]; 5.41 µM in test [3]; 25.2 µM in test [4]; 28.6 µM in [5]; 38.4 µM in [6]. In addition, the TGI in test [7] amounted to 27.2 µM; in [8], 20.4 µM; in test [9], 30.1 µM.

As to `COC(=O)c1ccc(-c2nc3cc(F)c(F)cc3nc2C#N)cc1`, the GI50 in [1] is 9.12 µM; in [2], 31.4 µM; in test [3], 4.66 µM; in test [4] it was 8.21 µM; in [5], 10.2 µM; in test [6] it was 9.58 µM. The GI50 in [7] was 8.28 µM; in test [8], 9.62 µM; in test [9], 10.1 µM; in [10] it was 8.53 µM. Also, the TGI in test [1] is 17 µM; in test [2], 50 µM; in [3], 16.8 µM; in test [4], 16.4 µM; in test [5], 18.8 µM; in test [6], 33.9 µM. Besides, the TGI in [7] is 18.9 µM; in test [8] it was 20.4 µM; in test [9] it was 21.4 µM; in test [10] it was 17.6 µM.

As to `C=C1C(=O)O[C@H]2[C@H]1CC/C(COC(=O)/C=C/c1cccnc1)=C\CC[C@@]1(C)O[C@@H]21`, the GI50 in [1] was 3.42 µM; in [2], 3.47 µM; in test [3], 0.467 µM; in [4], 1.83 µM; in [5] it was 1.73 µM; in test [6] it was 1.26 µM. Also, the GI50 in [7] was 1.38 µM; in test [8], 2.07 µM; in test [9], 5.74 µM; in [10], 0.75 µM. Also, the TGI in test [1] turned out to be 15.4 µM; in [2], 13.2 µM; in [3], 2.35 µM; in [4], 5.14 µM; in test [5], 3.54 µM; in [6], 2.61 µM. Besides, the TGI in test [7] stood at 3.23 µM; in test [8] it was 7.86 µM; in [9] it was 18.3 µM; in test [10], 2.15 µM.

Consider `N#Cc1c2ccccc2c2nnc3cc(C(F)(F)F)ccc3n12`, for which the GI50 is more than 100 µM in test [2]; more than 100 µM in test [3]; 31.4 µM in [4]; 92.3 µM in [6]; 29.7 µM in test [7]; 46.9 µM in test [8]. Besides, in test [9], the GI50 was 51.2 µM. The TGI in test [2], in [3], in test [4], in test [6], in test [7] and in test [8] was more than 100 µM throughout. For the same molecule, in [9], the TGI was more than 100 µM.

Take `CC(C)SC1SCC2C(=O)N(C)C3(CC3C)C(=O)OCC(NC(=O)c3nc4ccccc4cc3O)C(=O)NC(C)C(=O)N(C)C1C(=O)N(C)C1(CC1C)C(=O)OCC(NC(=O)c1nc3ccccc3cc1O)C(=O)NC(C)C(=O)N2C` (configuration not stated): the TGI in [1], in [2], in [4], in [5], in test [6] and in test [7] was less than 0.0001 µM in each case. The TGI in test [9] and in [10] was less than 0.0001 µM each time.

In the case of `Clc1ccc(Nc2ccnc(NCCNc3ccnc4cc(Cl)ccc34)n2)cc1`, the GI50 was 1.44 µM in [1]; 1.62 µM in test [2]; 1.14 µM in test [3]; 1.37 µM in test [4]; 1.68 µM in test [5]; 1.58 µM in test [6]. Besides, the figures for the GI50 in test [7], in [8] and in test [9] were 1.4 µM, 1.43 µM and 1.33 µM, respectively. The TGI in test [1] was 2.91 µM; in [2] it was 3.06 µM; in [3] it was 2.64 µM; in [4], 2.68 µM; in test [5], 3.17 µM; in [6], 3.03 µM. Also, the TGI in [7] is 3.09 µM; in test [8], 3.12 µM; in test [9], 2.67 µM.
